The numbers were not newly measured in paper PMC11813896, “Bis(7)-harmine derivatives as potential multi-target anti-Alzheimer agents” (Frontiers in Chemistry, 2025), which cites them from elsewhere.

For one series, the system named is MAO-B. Also on record: method as in Du et al., 2023; Haider et al., 2018. The conditions noted are these: ref Du et al., 2023; Haider et al., 2018; read-out: MAO-B (compound 6 of Figure 1); cited from earlier work.
Another series concerns MAO-A. The settings on record: ref Du et al., 2023; Haider et al., 2018; read-out: MAO-A (compound 6 of Figure 1); cited from earlier work.

In the case of `Cc1nccc2c1[nH]c1cc(OCc3cn(Cc4ccccc4Cl)nn3)ccc12` [Compound 6], the IC50 in the series on MAO-B was 0.26 µM; with MAO-A, 0.83 µM.
